{
  "source": "patent US5004758A",
  "about": "“Water soluble camptothecin analogs useful for inhibiting the growth of animal tumor cells” (priority 1988, dated 1991)",
  "key": {"[1]": {"system": "eight cultured human colon tumor cell lines", "assay": "Cytotoxicity in series of eight cultured human colon tumor cell lines", "format": "cell-based", "procedure": "For a brief exposure (2 hours) to the drug, the 50 percent inhibitory concentration ranged from 0.12-2.1 μg/ml.\nThe cell lines are used and maintained as monolayer cultures in Minimal Essential Media (Grand Island Biological Co., Grand Island, N.Y.) supplemented with 10% fetal calf serum in a 5% CO2 humidified incubator at 37° C. Various concentrations of a Formula (I) compound under sterile conditions were allowed to react for 2 hours followed by aspiration of medium or were exposed continuously. Plates are incubated for 7 days at 37° C. in a CO2 incubator. Medium was aspirated and cells were fixed and stained with ethanol and Geisma stain. The surviving cell population was determined by scanning the plates with an image analyzer. The percent inhibition of proliferation was determined relative to cells incubated in the absence of drug and the 50 percent inhibitory concentration (IC50) was determined by interpolation."}, "[2]": {"system": "L1210 leukemia cells", "assay": "cells", "format": "cell-based, mouse", "details": "Mus musculus, L1210, read-out: In Vitro Activity IC50", "procedure": "Cells were exposed continuously upon cloning into medium containing 0.2 percent Noble agar. After incubation at 37° C. in a CO2 incubator for 3 days, colonies were stained with viable cell specific formazan stain and, 24 hours later, were enumerated by a colony counter (Biotran II, New Brunswick Scientific Co., Edison, N.J.) adjusted to identify colonies of more than 50 cells. The concentration which reduced cloning efficiency by 50 percent IC50) was determined by interpolation."}, "[3]": {"system": "ip M5076 sarcoma", "assay": "ip-implanted M5076 sarcoma in mice", "format": "in vivo, mouse", "quoted_text": "Tumors used in these studies--P388 leukemia and its doxorbicin--and mitoxanrone-resistant sublines, L1210 leukemia, B16 melanoma, B16 melanoma/F10 subline, M5076 sarcoma and colon carcinoma 26--are maintained by serial transplantation in syngeneic strains of mice. For the leukemias, these tumors are maintained in DBA/2 mice. The M5076 sarcoma, the B16 melanoma and its F10 subline are maintained in C57B1/6 mice and the colon sarcinoma 26 is maintained in BALB/c mice. The leukemias and the M5076 sarcoma are serially transplanted i.p. as ascites cell suspensions while the B16 melanoma lines and the colon carcinoma 26 are serially transplanted as s.c. solid tumors.\nFor therapeutic trials, tumors are aseptically removed from donor mice and prepared as suspensions for implantation ip into test animals. The test animals for the colon carcinoma 26 are female BALB/c mice (20-25 gm). The test animals for the other tumor models are syngeneic female F1 hybrid B6D2F1 mice (C57B1/6 x DBA/2). The inoculum level varies with the type of tumor: P388 leukemia is inoculated at 10^6 cells per mouse, L1210 leukemia at 10^5 or 10^6 cells per mouse, M5076 sarcoma at 5×10^6 cells per mouse. For implantation of the B16 melanoma lines and the colon carcinoma 26, s.c. tumors from donor mice are minced and homogenized in loose fitting teflon glass homogenizer to give a tumor brei. The inoculum levels are 0.5 ml of a 10 percent (w:v) brei of the B16 melanoma lines and 0.5 ml of a 5 percent (w:v) brei of colon carcinoma 26. After tumor inoculation, mice randomized to treatment groups comprised of 6-8 mice each. In each experiment, there are three groups of untreated control mice. Drugs are dissolved or suspended in appropriate aqueous vehicles and given by a variety of routes and schedules of administration over a range of dose levels. Animals are housed in shoebox cages and are monitored daily for mortality for 30 (L1210), 45 (P388) or 60 (B16, M5076, colon 26) days."}, "[4]": {"system": "sc B16 melanoma/F10 subline", "assay": "sc-implanted B16 melanoma/F10 subline in mice", "format": "in vivo, mouse", "description": "(§1) The inoculum varies with the tumor."}, "[5]": {"system": "sc ADJ-PC6 plasmacytoma", "assay": "sc-implanted ADJ-PC6 plasmacytoma in mice", "format": "in vivo, mouse", "details": "for Mice without Palpable Tumors: sc ADJ-PC6, B/ip", "protocol": "Inhibition of tumor growth (TGI) is based on mean tumor volume of groups of 7 or 8 mice relative to untreated controls. Tumors were measured between Days 12 and 19 (except Day 24 for Colon 51 and Day 31 for Colon 38).\nTumors used in these studies are maintained by serial transplantation in syngeneic strains of mice C57BL/6 for Lewis lung carcinoma, B16 melanoma and its F10 subline, M5076 sarcoma and colon adenocarcinoma 38; BALB/c for colon carcinoma 26, ADJ-PC6 plasmacytoma Madison lung carcinoma and colon adenocarcinoma 51, C3H for mammary adenocarcinoma 16/c. With the exception of the M5076 sarcoma, which is maintained as a i.p ascites cell suspension, all of the tumors were serially transplanted as s.c. solid tumors.\nFor therapeutic trials, tumors were aseptically removed from donor mice and prepared for implantation s.c. into test animals. The test animals for Lewis lung carcinoma, B16 melanoma and its F10 subline, M5076 sarcoma and colon adenocarcinoma 38 are syngeneic female F1 hybrid B6D2F mice (C57B1/6×DBA/2). ADJ-PC6 plasmacytoma and colon carcinoma 26 are evaluated in female BALB/c mice. Madison lung carcinoma and colon adenocarcinoma 51 are evaluated in syngeneic female F1 hybrid CD2F1 mice (BALB/c×DBA/2). Mammary adenocarcinoma 16/c is evaluated in female C3H mice. The inoculum varies with the tumor. Colon adenocarcinomas 38 is implanted as 2 mm fragments by trochar. M5076 sarcoma and ADJ-PC6 plasmacytoma are implanted as cell suspensions at 5×10^6 and 2×10^6 cells per mouse, respectively. Colon carcinoma 26, colon adenocarcinoma 51, Lewis lung carcinoma, Madison lung carcinoma and B16 melanoma and its F10 subline are implanted as tumor breis prepared as described above in a volume of 0.5 ml. The brei concentration was 10 percent (w:v) except for colon carcinoma 26 for which the brei concentration was 5 percent (w:v). After tumor inoculation, mice are randomized to treatment groups of 7 or 8 mice. In each experiment, there are three groups of untreated control mice.\nDrugs are dissolved or suspended in appropriate aqueous vehicles and given by a variety of routes of administration and treatment schedules over a range of dosage levels. Animals are housed in shoebox cages and are monitored daily for mortality. […] Time for tumor measurement is dependent on the different rates of tumor growth of the different tumors: the most rapidly growing tumors such as the Lewis and Madison lung tumors, B16 melanoma and its F10 subline were measured between Days 12 and 16. The slower growing tumors were measured at later time points--17 days for M5076 sarcoma, 16 or 19 days for mammary adenocarcinoma 16/c, 19 days for ADJ-PC6 plasmacytoma and colon carcinoma 26, 24 days for colon adenocarcinoma 51, and 31 days for colon adenocarcinoma 38."}, "[6]": {"system": "sc M5076 sarcoma", "assay": "sc-implanted M5076 sarcoma in mice", "format": "in vivo, mouse", "details": "mouse, in vivo", "description": "as §1"}, "[7]": {"details": "ip M5076, single dose on Days 1, 5, 9 and 13 ip, additional study"}, "[8]": {"details": "ip M5076, single dose on Days 1, 5 and 9 ip, additional study"}},
  "note": "Where a name gives a salt, the structure may show the parent alone. Read-outs that look alike come from different tables or passages of the source.",
  "data": [
    {"smiles": "CC[C@@]1(O)C(=O)OCc2c1cc1n(c2=O)Cc2cc3c(CN(C)C)c(O)ccc3nc2-1", "note": "[Compound No. 1S, (20 S) 9-Dimethylaminomethyl-10-hydroxycamptothecin Acetate Salt]", "values": [
      {"measurement": "IC50", "setting": "[1]; 168 h, drug left in medium for full 7-day period, read-out: IC50 values, range over eight lines", "value": "0.0039 to 0.075", "unit": "µg/mL"},
      {"measurement": "IC50", "setting": "[1]; brief exposure (2 hours), read-out: 50 percent inhibitory concentration, range over eight lines", "value": "0.12 to 2.1", "unit": "µg/mL"},
      {"measurement": "IC50", "setting": "[2]", "value": 0.056, "unit": "µM"},
      {"measurement": "Increase in lifespan (ILS)", "setting": "[3]; ip M5076, C/ip (every 3 hours x4 on Days 1, 5 and 9), 0.62 mg/kg/injection", "value": 70, "unit": "%"},
      {"measurement": "Increase in lifespan (ILS)", "setting": "[3]; ip M5076, C/ip (every 3 hours x4 on Days 1, 5 and 9), 1.2 mg/kg/injection", "value": 75, "unit": "%"},
      {"measurement": "Increase in lifespan (ILS)", "setting": "[3]; ip M5076, C/ip (every 3 hours x4 on Days 1, 5 and 9), 5 mg/kg/injection", "value": "toxic"},
      {"measurement": "Increase in lifespan (ILS)", "setting": "[3]; ip M5076, C/ip (every 3 hours x4 on Days 1, 5 and 9), 10 mg/kg/injection", "value": "toxic"},
      {"measurement": "Increase in lifespan (ILS)", "setting": "[3]; ip M5076, C/sc (every 3 hours x4 on Days 1, 5 and 9), 0.62 mg/kg/injection", "value": 36, "unit": "%"},
      {"measurement": "Increase in lifespan (ILS)", "setting": "[3]; ip M5076, C/sc (every 3 hours x4 on Days 1, 5 and 9), 1.2 mg/kg/injection", "value": 70, "unit": "%"},
      {"measurement": "Increase in lifespan (ILS)", "setting": "[3]; ip M5076, C/sc (every 3 hours x4 on Days 1, 5 and 9), 5 mg/kg/injection", "value": "toxic"},
      {"measurement": "Increase in lifespan (ILS)", "setting": "[3]; ip M5076, C/sc (every 3 hours x4 on Days 1, 5 and 9), 10 mg/kg/injection", "value": "toxic"},
      {"measurement": "ILS", "setting": "[3]; [7]", "value": 71, "unit": "%"},
      {"measurement": "cures", "setting": "[3]; [7]", "value": "1/8"},
      {"measurement": "ILS", "setting": "[3]; [8]", "value": 75, "unit": "%"},
      {"measurement": "cures", "setting": "[3]; [8]", "value": "1/8"},
      {"measurement": "ILS", "setting": "[3]; mouse, in vivo", "value": 57},
      {"measurement": "Long-Term Survivors", "setting": "[3]; mouse, in vivo, 1.2 mg/kg", "value": "1/8"},
      {"measurement": "Long-Term Survivors", "setting": "[3]; mouse, in vivo, ip, 0.62 mg/kg", "value": "1/8"},
      {"measurement": "Long-Term Survivors", "setting": "[3]; mouse, in vivo, ip, 1.2 mg/kg", "value": "1/8"},
      {"measurement": "Increase in Lifespan (ILS) or Inhibition of Tumor Growth (TGI)", "setting": "[4]; mouse, in vivo, sc", "value": 100, "unit": "% TGI"},
      {"measurement": "Tumor growth inhibition (TGI)", "setting": "[4]; sc B16/F10, B/ip (Days 1, 5, 9 and 13), 3.2 mg/kg/injection", "value": 52, "unit": "%"},
      {"measurement": "Tumor growth inhibition (TGI)", "setting": "[4]; sc B16/F10, B/ip (Days 1, 5, 9 and 13), 5.4 mg/kg/injection", "value": 62, "unit": "%"},
      {"measurement": "Tumor growth inhibition (TGI)", "setting": "[4]; sc B16/F10, B/ip (Days 1, 5, 9 and 13), 9 mg/kg/injection", "value": 57, "unit": "%"},
      {"measurement": "Tumor growth inhibition (TGI)", "setting": "[4]; sc B16/F10, B/ip (Days 1, 5, 9 and 13), 15 mg/kg/injection", "value": 87, "unit": "%"},
      {"measurement": "Tumor growth inhibition (TGI)", "setting": "[4]; sc B16/F10, B/ip (Days 1, 5, 9 and 13), 25 mg/kg/injection", "value": 100, "unit": "%"},
      {"measurement": "Mice without Palpable Tumors", "setting": "[4]; sc B16/F10, B/ip, 25 mg/kg/injection", "value": "7/8"},
      {"measurement": "Tumor growth inhibition (TGI)", "setting": "[4]; sc B16/F10, F/iv (Days 1, 5 and 9), 3.2 mg/kg/injection", "value": 22, "unit": "%"},
      {"measurement": "Tumor growth inhibition (TGI)", "setting": "[4]; sc B16/F10, F/iv (Days 1, 5 and 9), 5.4 mg/kg/injection", "value": 34, "unit": "%"},
      {"measurement": "Tumor growth inhibition (TGI)", "setting": "[4]; sc B16/F10, F/iv (Days 1, 5 and 9), 9 mg/kg/injection", "value": 60, "unit": "%"},
      {"measurement": "Tumor growth inhibition (TGI)", "setting": "[4]; sc B16/F10, F/iv (Days 1, 5 and 9), 15 mg/kg/injection", "value": 97, "unit": "%"},
      {"measurement": "Tumor growth inhibition (TGI)", "setting": "[4]; sc B16/F10, F/iv (Days 1, 5 and 9), 25 mg/kg/injection", "value": 97, "unit": "%"},
      {"measurement": "Mice without Palpable Tumors", "setting": "[4]; sc B16/F10, F/iv, 3.2 mg/kg/injection", "value": "1/8"},
      {"measurement": "Mice without Palpable Tumors", "setting": "[4]; sc B16/F10, F/iv, 5.4 mg/kg/injection", "value": "1/8"},
      {"measurement": "Mice without Palpable Tumors", "setting": "[4]; sc B16/F10, F/iv, 9 mg/kg/injection", "value": "2/8"},
      {"measurement": "Mice without Palpable Tumors", "setting": "[4]; sc B16/F10, F/iv, 15 mg/kg/injection", "value": "7/8"},
      {"measurement": "Mice without Palpable Tumors", "setting": "[4]; sc B16/F10, F/iv, 25 mg/kg/injection", "value": "6/8"},
      {"measurement": "Increase in lifespan (ILS)", "setting": "[4]; sc B16/F10, ip treatment at 25", "value": 70, "unit": "%"},
      {"measurement": "tumor growth inhibition at two dose levels", "setting": "[4]; sc B16/F10, iv on Days 1, 5 and 9", "value": 97, "unit": "%"},
      {"measurement": "ILS", "setting": "[4]; sc B16/F10, iv treatment at the same dose level (25)", "value": 38, "unit": "%"},
      {"measurement": "inhibition of tumor growth at four dose levels at or below the maximally tolerated dose", "setting": "[5]; mouse, in vivo", "value": "> 90"},
      {"measurement": "long term tumor-free survivors at each of the top three dose levels", "setting": "[5]; mouse, in vivo", "value": "1 of 8"},
      {"measurement": "Tumor growth inhibition (TGI)", "setting": "[5]; mouse, in vivo, 3.2 mg/kg", "value": 93, "unit": "%"},
      {"measurement": "Tumor growth inhibition (TGI)", "setting": "[5]; mouse, in vivo, 5.4 mg/kg", "value": 92, "unit": "%"},
      {"measurement": "long-term, tumorfree survivors", "setting": "[5]; mouse, in vivo, 5.4 mg/kg", "value": "1/8"},
      {"measurement": "Tumor growth inhibition (TGI)", "setting": "[5]; mouse, in vivo, 9 mg/kg", "value": 100, "unit": "%"},
      {"measurement": "long-term, tumorfree survivors", "setting": "[5]; mouse, in vivo, 9 mg/kg", "value": "1/8"},
      {"measurement": "long-term, tumorfree survivors", "setting": "[5]; mouse, in vivo, 15 mg/kg", "value": "1/8"},
      {"measurement": "Tumor growth inhibition (TGI)", "setting": "[5]; mouse, in vivo, 25 mg/kg", "value": "toxic"},
      {"measurement": "Increase in Lifespan (ILS) or Inhibition of Tumor Growth (TGI)", "setting": "[5]; mouse, in vivo, sc", "value": 100, "unit": "% TGI"},
      {"measurement": "Mice without Palpable Tumors", "setting": "[5]; 3.2 mg/kg/injection", "value": "3/8"},
      {"measurement": "Mice without Palpable Tumors", "setting": "[5]; 5.4 mg/kg/injection", "value": "4/8"},
      {"measurement": "Mice without Palpable Tumors", "setting": "[5]; 9 mg/kg/injection", "value": "8/8"},
      {"measurement": "Mice without Palpable Tumors", "setting": "[5]; 15 mg/kg/injection", "value": "7/7"},
      {"measurement": "TGI at three dose levels at or below a maximally tolerated dose", "setting": "[6]", "value": "> 90"},
      {"measurement": "Tumor growth inhibition (TGI)", "setting": "[6]; 3.2 mg/kg", "value": 64, "unit": "%"},
      {"measurement": "Tumor growth inhibition (TGI)", "setting": "[6]; 5.4 mg/kg", "value": 92, "unit": "%"},
      {"measurement": "Tumor growth inhibition (TGI)", "setting": "[6]; 9 mg/kg", "value": 98, "unit": "%"}
    ]}
  ]
}
